From ChEMBL document CHEMBL1201862, “PubChem BioAssay data set” (2004)
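Growth conditions: 96-well plates. Treatment: test compound, 48 hours, 5 concentrations. Analysis: linear interpolation between bracketing concentrations; unreached endpoints set to highest concentration. GI50: concentration for 50% inhibition of growth.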 Activity calls are given as the source filed them. Cut-off read from the data, not from the text of the source: active = GI50 up to about 1.1 µM and inactive = higher.

How the values were obtained:
Test in all cases: NCI-60 cell line screen, 48 h
Malme-3M = test system: Malme-3M
SR = test system: SR
UACC-62 = test system: UACC-62
786-0 = test system: 786-0
UO-31 = test system: UO-31
BT-549 = test system: BT-549
TK-10 = test system: TK-10
DU-145 = test system: DU-145
SK-OV-3 = test system: SK-OV-3
HT-29 = test system: HT-29
MDA-MB-435 = test system: MDA-MB-435
MCF7 = test system: MCF7
SNB-19 = test system: SNB-19
MDA-N = test system: MDA-N
CAKI-1 = test system: CAKI-1
SK-MEL-5 = test system: SK-MEL-5
HCT-15 = test system: HCT-15
OVCAR-5 = test system: OVCAR-5
OVCAR-3 = test system: OVCAR-3
SK-MEL-28 = test system: SK-MEL-28
IGROV-1 = test system: IGROV-1
NCI-H522 = test system: NCI-H522
NCI-H23 = test system: NCI-H23
MDA-MB-231 = test system: MDA-MB-231
A549 = test system: A549
T47D = test system: T47D
COLO 205 = test system: COLO 205
MOLT-4 = test system: MOLT-4
OVCAR-8 = test system: OVCAR-8
SK-MEL-2 = test system: SK-MEL-2
SW-620 = test system: SW-620
HCT-116 = test system: HCT-116
HCC 2998 = test system: HCC 2998
SF-539 = test system: SF-539
M14 = test system: M14
RXF 393 = test system: RXF 393
UACC-257 = test system: UACC-257
NCI-H460 = test system: NCI-H460
PC-3 = test system: PC-3
HOP-92 = test system: HOP-92
U-251 = test system: U-251
KM12 = test system: KM12
OVCAR-4 = test system: OVCAR-4
SF-295 = test system: SF-295
SNB-75 = test system: SNB-75
ACHN = test system: ACHN
Hs-578T = test system: Hs-578T
SN12C = test system: SN12C
RPMI-8226 = test system: RPMI-8226
HOP-62 = test system: HOP-62
SF-268 = test system: SF-268
EKVX = test system: EKVX
NCI/ADR-RES = test system: NCI/ADR-RES
NCI-H226 = test system: NCI-H226
K562 = test system: K562
LOX IMVI = test system: LOX IMVI
A498 = test system: A498
CCRF-CEM = test system: CCRF-CEM
HL-60 = test system: HL-60

Measured: GI50

Cc1ccccc1OC(C)C(=O)NN1C(=O)CSC1c1ccccc1 (stereo unspecified)
65.3 µM: HCT-15
inactive: Malme-3M > 100 µM | SR 10.2 µM | UACC-62 64.7 µM | 786-0 > 100 µM | UO-31 63.2 µM | BT-549 > 100 µM | TK-10 > 100 µM | DU-145 > 100 µM | SK-OV-3 > 100 µM | HT-29 93.1 µM | MDA-MB-435 79.3 µM | MCF7 38.5 µM | SNB-19 67.6 µM | MDA-N 53.2 µM | CAKI-1 > 100 µM | SK-MEL-5 32.2 µM | OVCAR-5 > 100 µM | OVCAR-3 58.7 µM | SK-MEL-28 > 100 µM | IGROV-1 > 100 µM | NCI-H522 61.9 µM | NCI-H23 53.2 µM | MDA-MB-231 > 100 µM | A549 42 µM | T47D 34.7 µM | COLO 205 > 100 µM | OVCAR-8 > 100 µM | SK-MEL-2 > 100 µM | SW-620 > 100 µM | HCT-116 53.1 µM | HCC 2998 63.2 µM | SF-539 > 100 µM | M14 > 100 µM | RXF 393 45 µM | UACC-257 45.2 µM | NCI-H460 93.5 µM | PC-3 > 100 µM | HOP-92 47.8 µM | U-251 96.4 µM | KM12 93.5 µM | OVCAR-4 > 100 µM | SF-295 56.2 µM | SNB-75 60.7 µM | ACHN 60.5 µM | Hs-578T > 100 µM | SN12C > 100 µM | RPMI-8226 34.2 µM | HOP-62 > 100 µM | SF-268 > 100 µM | EKVX 83.2 µM | NCI/ADR-RES 72.8 µM | NCI-H226 67.1 µM | K562 14.7 µM | LOX IMVI > 100 µM | A498 34.3 µM
active: MOLT-4 < 0.01 µM

COc1ccc2c(=O)c3cc([N+](=O)[O-])ccc3n(C)c2c1
inactive: Malme-3M > 100 µM | SR > 100 µM | UACC-62 > 100 µM | 786-0 > 100 µM | UO-31 > 100 µM | BT-549 > 100 µM | TK-10 > 100 µM | DU-145 > 100 µM | MDA-MB-435 > 100 µM | MCF7 > 100 µM | SNB-19 > 100 µM | MDA-N > 100 µM | CAKI-1 > 100 µM | SK-MEL-5 > 100 µM | OVCAR-5 > 100 µM | OVCAR-3 > 100 µM | SK-MEL-28 > 100 µM | IGROV-1 > 100 µM | NCI-H522 > 100 µM | MDA-MB-231 > 100 µM | A549 > 100 µM | T47D > 100 µM | COLO 205 > 100 µM | CCRF-CEM > 100 µM | MOLT-4 > 100 µM | OVCAR-8 > 100 µM | SK-MEL-2 > 100 µM | SW-620 > 100 µM | HCC 2998 > 100 µM | SF-539 > 100 µM | HL-60 > 100 µM | M14 > 100 µM | RXF 393 > 100 µM | UACC-257 > 100 µM | NCI-H460 > 100 µM | PC-3 > 100 µM | HOP-92 > 100 µM | U-251 > 100 µM | KM12 > 100 µM | OVCAR-4 > 100 µM | SF-295 > 100 µM | SNB-75 > 100 µM | ACHN > 100 µM | Hs-578T > 100 µM | SN12C > 100 µM | RPMI-8226 > 100 µM | SF-268 > 100 µM | EKVX 6.37 µM | NCI/ADR-RES > 100 µM | NCI-H226 > 100 µM | K562 > 100 µM | LOX IMVI > 100 µM | A498 > 100 µM
> 100 µM: HCT-15
